1 molecule from ChEMBL document CHEMBL1137802, “Specific antioxidant activity of caffeoyl derivatives and other natural phenolic compounds: LDL protection against oxidation and decrease in the proinflammatory lysophosphatidylcholine production” (J Nat Prod, 2001) can be followed below.

Each structure is given as a SMILES string.

Type in all cases: functional, cell-free
Test [1] can be described thus: Antioxidant activity against Cu2+-induced lipid peroxidation in human plasma LDL assessed as maximal compound concentration at 10 umol/L preincubated for 1 hr before Cu2+ challenge measured after 90 mins relative to compound present at 0 min.
Test [2] can be described thus: Antioxidant activity against Cu2+-induced lipid peroxidation in human plasma LDL preincubated for 1 hr before Cu2+ challenge.
The nature of test [3]: Antioxidant activity against Cu2+-induced lipid peroxidation in human plasma LDL assessed as vitamin E consumption at 5 umol/L preincubated for 1 hr before Cu2+ challenge measured after 210 mins.
A short description of test [4]: Antioxidant activity against Cu2+-induced lipid peroxidation in human plasma LDL assessed as conjugated diene formation at 20 umol/L preincubated for 1 hr before Cu2+ challenge measured after 120 mins.
Test [5] in a line: Antioxidant activity against Cu2+-induced lipid peroxidation in human plasma LDL assessed as vitamin E consumption at 5 umol/L preincubated for 1 hr before Cu2+ challenge measured after 15 mins.
Test [6] in a line: Antioxidant activity against Cu2+-induced lipid peroxidation in human plasma LDL assessed as conjugated diene formation at 10 umol/L preincubated for 1 hr before Cu2+ challenge measured after 60 mins.
A short description of test [7]: Antioxidant activity against Cu2+-induced lipid peroxidation in human plasma LDL assessed as lysophosphatidylcholine formation at 5 umol/L preincubated for 1 hr before Cu2+ challenge measured after 210 mins.
A short description of test [8]: Antioxidant activity against Cu2+-induced lipid peroxidation in human plasma LDL assessed as vitamin E consumption at 5 umol/L preincubated for 1 hr before Cu2+ challenge measured after 270 mins.
The nature of test [9]: Antioxidant activity against Cu2+-induced lipid peroxidation in human plasma LDL assessed as vitamin E consumption at 10 umol/L preincubated for 1 hr before Cu2+ challenge measured after 90 mins.

For the molecule `CC(C)(Sc1cc(C(C)(C)C)c(O)c(C(C)(C)C)c1)Sc1cc(C(C)(C)C)c(O)c(C(C)(C)C)c1`, the Activity in test [1] worked out at 27.2%; in test [2] it was 5.8 µM/L; in test [3] it was 0%; in test [4], 0.2%; in test [5], 45%; in test [6], 0.6%. The figures for the Activity in test [7], in test [8] and in [9] were 23.1%, 0% and 0%, respectively.
